Patent publication US4698350A, “1-ethyl-6-fluoro-1,4-dihydro- 7-(2,6-dimethyl-4-pyridinyl)-4-oxo-3-quinolinecarboxylic acid and antibacterial use thereof” (Sterling Drug Inc., priority 1984, dated 1987)
Values after ≈ are worked out from the molar mass of the structure shown. Read-outs that look alike come from different tables or passages of the source.

How the values were obtained:
S. aureus 10-81 = assay: In vitro antibacterial MIC/MBC test; type: cell-based; conditions: Staphylococcus aureus, 1081, S. aureus 10-81
Protocol: (§1) Win 52,522 and Win 35,439 were solubilized in 0.1 ml of 0.5 N NaOH/mg of compound and diluted in sterile distilled water to 160 mcg/ml. Vancomycin and methicillin were solubilized in sterile distilled water to 1250 mcg/ml of base compound. The stock solutions were sterilized by filtration through membrane filters with a 0.45 μm pore size.
(§2) The bacterial cultures listed in Table I (hereinbelow) were grown overnight at 37° C. in MHB for all cultures except the Streptococcus strains. These were grown in BHI+10% NHS. The overnight broth cultures were adjusted to an optical density of 0.10 (650 nm, B L Spectronic 20) in sterile distilled water and subsequently diluted to 6.7×10^6 cells/ml in MHB or BHI+1% NHS.
(§3) Serial two-fold dilutions of the compound solutions were prepared in MHB (or in BHI+1% NHS for tests with Streptococci) and dispensed into 96-well microtiter trays in a volume of 0.1 ml/well using a Sandy Springs (Bellco Glass Co.) dispenser. The trays were then inoculated with 0.0015 ml of a suspension containing 6.7×10^6 cells/ml of the appropriate inoculum using a MIC-2000 inoculator (Dynatech Corp.) resulting in a final inoculum of approximately 1×10^4 cells/well or 1×10^5 cells/ml. The trays were incubated at 37° C. for 18-20 hours and the minimal inhibitory concentration (MIC), defined as the lowest concentration of compound to inhibit visible bacterial growth, was recorded.
(§4) After the MIC values were recorded, the contents in the microtiter trays were thoroughly mixed on a Bellco Mini-orbital Shaker (Bellco Glass Co.) for 3 min. at a setting of 8. A portion (0.0015 ml) from each well was then transferred via an MIC-2000 inoculator to plates containing MHA or BHI agar+10% NHS. The plates were incubated at 37° C. for 18-20 hrs. The minimal bactericidal concentration (MBC), defined as the lowest concentration of compound that prevented the formation of a recognizable colony on the agar surface, was recorded.

S. aureus 21-81A = assay: In vitro antibacterial MIC/MBC test; type: cell-based; conditions: Staphylococcus aureus, 2181A, S. aureus 21-81A
Protocol: as §1, §2, §3, §4

S. aureus 59-81 = assay: In vitro antibacterial MIC/MBC test; type: cell-based; conditions: Staphylococcus aureus, 5981, S. aureus 59-81
Protocol: as §1, §2, §3, §4

S. aureus Smith = assay: In vitro antibacterial MIC/MBC test; type: cell-based; conditions: Staphylococcus aureus, S. aureus Smith
Protocol: as §1, §2, §3, §4

S. enterococcus 0-2-13 = assay: In vitro antibacterial MIC/MBC test; type: cell-based; conditions: 0213, S. enterococcus 0-2-13
Protocol: as §1, §2, §3, §4

S. epidermidis 2-1-B = assay: In vitro antibacterial MIC/MBC test; type: cell-based; conditions: Staphylococcus epidermidis, 21B, S. epidermidis 2-1-B
Protocol: as §1, §2, §3, §4

S. pneumoniae Type I = assay: In vitro antibacterial MIC/MBC test; type: cell-based; conditions: Streptococcus pneumoniae, S. pneumoniae Type I
Protocol: as §1, §2, §3, §4

S. aureus = assay: In vitro MIC/MBC summary (Table II); type: cell-based; conditions: Staphylococcus aureus
Protocol: as §1, §2, §3, §4

Streptococcus sp. = assay: In vitro MIC/MBC summary (Table II); type: cell-based; conditions: 9 Streptococcus sp. strains
Protocol: as §1, §2, §3, §4

S. edidermidis = assay: In vitro MIC/MBC summary (Table II); type: cell-based, S. epidermidis; conditions: Staphylococcus epidermidis, 5 S. edidermidis strains
Protocol: as §1, §2, §3, §4

[1] = tested on: Staphylococcus aureus Smith; assay: Mouse protection test, S. aureus Smith infection, single dose; type: in vivo, ICR mice; Staphylococcus aureus; conditions: single dose; for ED50: Staphylococcus aureus, 168 h, read-out: Protective Dose 50% (95% Confidence Limits)
Protocol: (§5) ICR mice, female, 18-20 grams each.
(§6) Solutions of Win 52,522 and Win 35,439 were prepared by dissolving the appropriate weight of drug in 0.3 to 0.4 ml of 1 N NaOH and then bringing the solutions to the desired volume with distilled water. Methicillin and vancomycin were dissolved directly in distilled water.
Two and one-half ml of pool were added to 247.5 ml of 5% gastric mucin to provide the test inoculum containing 2.1×10^4 cells/ml.
(§7) Mice were inoculated intraperitoneally with 0.5 ml of the bacterial test inoculum.
1. Single dose test--Mice were medicated subcutaneously or orally once (0.5 ml) one-half hour postinfection.
(§8) Deaths were recorded daily for seven days for all tests. Fifty percent protective dose values (PD50's) were calculated using probit analysis [SAS Users Guide: Statistics, 1982 Edition, SAS Institute, Inc., Cary, N.C.].

[2] = tested on: Staphylococcus aureus 39881 (Methicillin-resistant); assay: Mouse protection test, S. aureus 39881 (methicillin-resistant) infection; type: in vivo, ICR mice; Staphylococcus aureus; conditions: for Survivors/Total: two doses; for ED50: Staphylococcus aureus, 168 h, two doses one-half and four hours postinfection, read-out: Protective Dose 50% (95% Confidence Limits)
Protocol: as §5, §6
The culture was streaked onto three Brain Heart Infusion Agar plates and incubated 16 hours at 37° C. The cells were washed off each plate with five ml of saline and the cell suspension was shaken with glass beads for two minutes on a paint shaker. The suspension was diluted with saline so that a […] gave a 44% T reading on a B+L Spectronic 20 (650 nm) calibrated with saline. The stock suspension was diluted 1:24 (10 ml stock suspension+230 ml 5% mucin) to obtain the test inoculum containing 1.55×10^9 cells/ml.
as §7
Mice were medicated twice: at one-half and four hours postinfection. The drugs were administered by both subcutaneous (0.2 ml) and oral (0.5 ml) routes.
as §8

## CCn1cc(C(=O)O)c(=O)c2ccc(-c3cc(C)nc(C)c3)cc21 [Win 35,439, 1-ethyl-1,4-dihydro-7-(2,6-dimethyl-4-pyridinyl)-4-oxo-3-quinolinecarboxylic acid]
S. aureus 10-81; read-out: MBC
  MBC: 0.125 µg/mL (≈ 0.388 µM)
S. aureus 10-81; read-out: MIC
  MIC: 0.125 µg/mL (≈ 0.388 µM)
S. aureus 21-81A; read-out: MBC
  MBC: 0.125 µg/mL (≈ 0.388 µM)
S. aureus 21-81A; read-out: MIC
  MIC: 0.06 µg/mL (≈ 0.186 µM)
S. aureus 59-81; read-out: MBC
  MBC: 0.25 µg/mL (≈ 0.776 µM)
S. aureus 59-81; read-out: MIC
  MIC: 0.125 µg/mL (≈ 0.388 µM)
S. aureus Smith; read-out: MBC
  MBC: 0.125 µg/mL (≈ 0.388 µM)
S. aureus Smith; read-out: MIC
  MIC: 0.125 µg/mL (≈ 0.388 µM)
S. enterococcus 0-2-13; read-out: MBC
  MBC: 2 µg/mL (≈ 6.2 µM)
S. enterococcus 0-2-13; read-out: MIC
  MIC: 2 µg/mL (≈ 6.2 µM)
S. epidermidis 2-1-B; read-out: MBC
  MBC: 0.25 µg/mL (≈ 0.776 µM)
S. epidermidis 2-1-B; read-out: MIC
  MIC: 0.25 µg/mL (≈ 0.776 µM)
S. pneumoniae Type I; read-out: MBC
  MBC: 2 µg/mL (≈ 6.2 µM)
S. pneumoniae Type I; read-out: MIC
  MIC: 2 µg/mL (≈ 6.2 µM)
S. aureus; read-out: MBC 50%
  MBC: 0.25 µg/mL (≈ 0.776 µM)
S. aureus; read-out: MBC 90%
  MBC: 0.5 µg/mL (≈ 1.55 µM)
S. aureus; read-out: MBC Range
  MBC: 0.125 to 0.5 µg/mL (≈ 0.388 to 1.55 µM)
S. aureus; 15 S. aureus strains, read-out: MIC 50%
  MIC50: 0.06 µg/mL (≈ 0.186 µM)
S. aureus; 15 S. aureus strains, read-out: MIC 90%
  MIC90: 0.125 µg/mL (≈ 0.388 µM)
S. aureus; 15 S. aureus strains, read-out: MIC Range
  MIC: 0.03 to 0.125 µg/mL (≈ 0.0931 to 0.388 µM)
Streptococcus sp.; read-out: MBC 50%
  MBC: 2 µg/mL (≈ 6.2 µM)
Streptococcus sp.; read-out: MBC 90%
  MBC: > 16 µg/mL
Streptococcus sp.; read-out: MIC 50%
  MIC50: 2 µg/mL (≈ 6.2 µM)
Streptococcus sp.; read-out: MIC 90%
  MIC90: 4 µg/mL (≈ 12.4 µM)
Streptococcus sp.; read-out: MIC Range
  MIC: 0.5 to 4 µg/mL (≈ 1.55 to 12.4 µM)
S. edidermidis; read-out: MBC 50%
  MBC: 0.25 µg/mL (≈ 0.776 µM)
S. edidermidis; read-out: MBC 90%
  MBC: 0.25 µg/mL (≈ 0.776 µM)
S. edidermidis; read-out: MBC Range
  MBC: 0.25 to 0.5 µg/mL (≈ 0.776 to 1.55 µM)
S. edidermidis; read-out: MIC 50%
  MIC50: 0.25 µg/mL (≈ 0.776 µM)
S. edidermidis; read-out: MIC 90%
  MIC90: 0.25 µg/mL (≈ 0.776 µM)
S. edidermidis; read-out: MIC Range
  MIC: 0.25 to 0.5 µg/mL (≈ 0.776 to 1.55 µM)
[1]; 0.39 mg/kg po
  Survivors/Total: 0/10
[1]; 0.78 mg/kg po
  Survivors/Total: 1/10
[1]; 0.78 mg/kg sc
  Survivors/Total: 1/10
[1]; 1.56 mg/kg po
  Survivors/Total: 0/10
[1]; 1.56 mg/kg sc
  Survivors/Total: 0/10
[1]; 3.13 mg/kg po
  Survivors/Total: 0/10
[1]; 3.13 mg/kg sc
  Survivors/Total: 6/10
[1]; 6.25 mg/kg po
  Survivors/Total: 7/10
[1]; 6.25 mg/kg sc
  Survivors/Total: 10/10
[1]; po
  ED50: ~5.5 mg/kg
[1]; sc
  ED50: 2.9 mg/kg
[2]; 1.56 mg/kg po
  Survivors/Total: 1/10
[2]; 1.56 mg/kg sc
  Survivors/Total: 0/10
[2]; 3.13 mg/kg po
  Survivors/Total: 0/10
[2]; 3.13 mg/kg sc
  Survivors/Total: 0/10
[2]; 6.25 mg/kg po
  Survivors/Total: 3/10
[2]; 6.25 mg/kg sc
  Survivors/Total: 9/10
[2]; 12.5 mg/kg po
  Survivors/Total: 10/10
[2]; 12.5 mg/kg sc
  Survivors/Total: 7/10
[2]; po
  ED50: 7.2 mg/kg
[2]; sc
  ED50: ~4.9 mg/kg
